This note sets out measurements from patent US4539150A, “Benzothiazepine derivatives and their methods of preparation” (Mitsui Toatsu Chemicals, Inc., priority 1983, dated 1985).

As a reminder, the IC50 is the concentration that inhibits the measured activity by half. Lower therefore signals higher potency.

The target in assay [1] is T1, angiotensin converting enzyme (ACE) (Oryctolagus cuniculus, UniProt P12822).
T1 construct: Using ACE isolated from rabbit lungs; from tissue; host or cells: rabbit lungs
T1 sequence (P12822 34-1310): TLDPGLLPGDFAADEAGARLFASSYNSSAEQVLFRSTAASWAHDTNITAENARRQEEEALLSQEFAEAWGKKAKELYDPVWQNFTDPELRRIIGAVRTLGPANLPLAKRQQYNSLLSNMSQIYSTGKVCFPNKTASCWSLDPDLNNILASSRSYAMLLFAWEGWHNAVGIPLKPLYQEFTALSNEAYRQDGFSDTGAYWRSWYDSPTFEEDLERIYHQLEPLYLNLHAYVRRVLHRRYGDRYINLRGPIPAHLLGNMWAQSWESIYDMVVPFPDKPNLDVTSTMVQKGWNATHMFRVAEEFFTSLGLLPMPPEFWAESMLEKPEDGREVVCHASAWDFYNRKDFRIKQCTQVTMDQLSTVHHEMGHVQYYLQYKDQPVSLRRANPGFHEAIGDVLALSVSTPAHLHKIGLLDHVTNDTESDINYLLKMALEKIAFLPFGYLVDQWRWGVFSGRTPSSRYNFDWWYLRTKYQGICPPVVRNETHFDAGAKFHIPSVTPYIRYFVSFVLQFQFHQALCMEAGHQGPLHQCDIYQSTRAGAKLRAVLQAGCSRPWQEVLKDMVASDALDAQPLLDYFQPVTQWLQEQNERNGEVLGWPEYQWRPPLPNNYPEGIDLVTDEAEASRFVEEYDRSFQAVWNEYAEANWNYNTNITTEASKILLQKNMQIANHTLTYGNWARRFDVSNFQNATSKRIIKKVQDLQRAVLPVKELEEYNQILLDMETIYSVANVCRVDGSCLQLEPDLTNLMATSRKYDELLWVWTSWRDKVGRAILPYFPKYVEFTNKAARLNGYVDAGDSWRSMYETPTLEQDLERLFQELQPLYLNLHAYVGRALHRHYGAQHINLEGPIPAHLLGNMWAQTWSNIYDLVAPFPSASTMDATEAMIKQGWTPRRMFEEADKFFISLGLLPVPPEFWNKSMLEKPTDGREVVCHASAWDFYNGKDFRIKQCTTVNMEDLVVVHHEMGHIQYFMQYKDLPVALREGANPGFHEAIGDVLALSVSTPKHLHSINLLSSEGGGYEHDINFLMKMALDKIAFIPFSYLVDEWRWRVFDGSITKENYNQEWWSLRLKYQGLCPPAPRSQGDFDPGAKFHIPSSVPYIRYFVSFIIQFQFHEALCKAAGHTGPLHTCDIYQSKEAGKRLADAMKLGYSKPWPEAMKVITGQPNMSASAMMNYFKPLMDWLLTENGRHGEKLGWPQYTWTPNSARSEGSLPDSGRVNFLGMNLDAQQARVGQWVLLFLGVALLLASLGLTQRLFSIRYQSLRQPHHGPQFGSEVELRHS
Description: in vitro evaluation of inhibitory effects on ACE activity (method of Cushman). The format is biochemical. As to conditions: ACE isolated from rabbit lungs; for IC50: Table 1, in vitro. Here is the method: The efficacy of the compounds of the present invention can be tested by evaluating their inhibitory effects on the angiotensin converting enzyme (ACE). Using ACE isolated from rabbit lungs, in vitro evaluation of inhibitory effects on ACE activity was carried out according to the method of Cushman [Biochem. Pharmacol., 20, 1637(1971)]. […] Some of the compounds obtained in the other examples were also tested by in vitro evaluation of inhibitory effects on ACE activity and the results thus obtained are summarized in Table 1.

Assay [2] relates to spontaneously occurring hypertensive rats (SHR). Kind of assay: depressor effect after oral administration in spontaneously occurring hypertensive rats (SHR), systolic blood pressure of caudal artery. The format is in vivo, rat. As to conditions: 50 mg/kg oral, unanesthetized male SHR. Here is the method:
The compounds of the present invention can also be tested by evaluating their depressor effects. Such evaluation was carried out by using spontaneously occurring hypertensive rats (SHR). Male rats, aged 20 weeks or more, were fasted for 17 hours. Then, under an unanesthetized condition, the systolic blood pressure of their caudal artery was nonsurgically measured before medication as well as 2,4,6 and 24 hours after medication. Test compounds were orally administered to groups of 3-5 rats showing a systolic blood pressure of 180 mmHg or above.
When the compound of Example 10 was orally administered in a dose of 50 mg/kg, the blood pressure was reduced by 26, 34 and 46 mmHg after the lapse of 2, 4 and 6 hours, respectively.

SMILES strings stand for the structures. Structures can show the parent of a compound that is named as a salt.

As for `CCCCCCCCC(NC1CSc2ccccc2N(CC(=O)O)C1=O)C(=O)O` (stereo not drawn) [Example 19, 5-carboxymethyl-3-(1-carboxynonylamino)-2,3-dihydro-1,5-benzothiazepin-4(5H)-one], half-maximal inhibition in assay [1] (IC50) required 10 nM. That is a double-digit nanomolar value.
`CCOC(=O)C(C)NC1CSc2ccccc2N(CC(=O)O)C1=O` (stereo not drawn) [Example 12, 5-carboxymethyl-3-(1-ethoxycarbonylethylamino)-2,3-dihydro-1,5-benzothiazepin-4(5H)-one hydrochloride] yielded an IC50 in assay [1] of 7000 nM.
Regarding `O=C(O)CN1C(=O)C(NC(CCc2ccccc2)C(=O)O)CSc2ccccc21` (stereo not drawn) [Example 8, 3-(1-carboxy-3-phenylpropylamino)-5-carboxymethyl-2,3-dihydro-1,5-benzothiazepin-4(5H)-one], the inhibition at 0.01 µM in assay [1] (0.01 μM, read-out: inhibited ACE activity) came to 14.8%. Moreover, the inhibition at 0.1 µM in assay [1] (0.1 μM, read-out: inhibited ACE activity) turned out to be 77.8%.
Consider `O=C(O)CNC1CSc2ccccc2N(CC(=O)O)C1=O` (stereo not drawn) [Example 16, 5-carboxymethyl-3-carboxymethylamino-2,3-dihydro-1,5-benzothiazepin-4(5H)-one hydrochloride], for which the IC50 in assay [1] came to 8200 nM.
On the same count and under the same terms, with `CC(NC1CSc2ccccc2N(CC(=O)O)C1=O)C(=O)O` (stereo not drawn) [Example 13, 5-carboxymethyl-3-(1-carboxyethylamino)-2,3-dihydro-1,5-benzothiazepin-4(5H)-one hydrochloride] the figure was 470 nM; with `CCCCCCCCC(NC1CSc2ccccc2N(CC(=O)O)C1=O)C(=O)OCC` (stereo not drawn) [Example 18, 5-carboxymethyl-3-(1-ethoxycarbonylnonylamino)-2,3-dihydro-1,5-benzothiazepin-4(5H)-one], 160 nM.
On to `CCOC(=O)C(CCc1ccccc1)NC1CSc2ccccc2N(CC(=O)O)C1=O.Cl` (stereo not drawn) [Example 10, 5-carboxymethyl-3-(1-ethoxycarbonyl-3-phenylpropylamino)-2,3-dihydro-1,5-benzothiazepin-4(5H)-one hydrochloride], for which the “depressor effect, persistence” value in assay [2] (24 hours) is recorded as “found to persist even after 24 hours”. In addition, the results for the “blood pressure was reduced by” value in assay [2] (after 2 hours), in assay [2] (after 4 hours) and in assay [2] (after 6 hours) were 26 mmHg, 34 mmHg and 46 mmHg, respectively.
`CCOC(=O)CNC1CSc2ccccc2N(CC(=O)O)C1=O` (stereo not drawn) [Example 15, 5-carboxymethyl-3-ethoxycarbonylmethylamino-2,3-dihydro-1,5-benzothiazepin-4(5H)-one hydrochloride]: in assay [1], the IC50 is above 100000 nM.
